Here are results for 33 molecules from patent US20240317686A1, “RORyT MODULATOR, AND PREPARATION METHOD THEREFOR AND APPLICATION THEREOF” (SHANGHAI PHARMACEUTICALS HOLDING CO., LTD., priority 2020, published 2024).

The test concerns the target T1, RORγt (Homo sapiens, UniProt P51449).
T1 construct: Prepare 4×RORgt-LBD in 1× buffer
T1 sequence (P51449 269-508 limits assumed): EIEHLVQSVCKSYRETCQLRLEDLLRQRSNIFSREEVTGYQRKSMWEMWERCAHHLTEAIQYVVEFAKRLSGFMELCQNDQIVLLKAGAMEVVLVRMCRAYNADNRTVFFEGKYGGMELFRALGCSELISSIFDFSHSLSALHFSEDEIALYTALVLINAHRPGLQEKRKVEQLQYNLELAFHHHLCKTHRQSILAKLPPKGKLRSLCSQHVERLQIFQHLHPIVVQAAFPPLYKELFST
Nature of the test: Fluorescence resonance energy transfer (FRET) assay of inhibitory activity on RORγt. In kind it is biochemical. To be noted: RORgt-LBD GST with SRC peptide. As to the method:
Fluorescence resonance energy transfer (FRET) experiment was performed to assay the inhibitory activity of the compound of the present invention on RORγt.
1) Preparation of DMSO stock solutions of the compounds: All compounds were dissolved in DMSO to prepare 10 mM stock solutions.
2) Compound storage: After the compound was dissolved in DMSO, the solution can be stored in a desiccator at room temperature for three months. For long-term storage, the solution should be put in a −20° C. refrigerator.
3) Preparation of working solution: • a) Positive control compound AZD0284: Starting from 500 µM, the solution was diluted serially by 3-folds with DMSO to obtain a 10-concentration gradient, each concentration with 3 replicate wells. 2 wells were pipetted. The gradiently diluted compound was diluted in a reaction buffer to obtain a 4× working solution (starting from 40 μM, diluted gradiently by 3-folds) of the positive control compound. • b) Compounds to be tested: Starting from 500 μM, the solution was diluted serially by 3-folds with DMSO to obtain a 10-concentration gradient, each concentration with 3 replicate wells. 2 wells were pipetted. The gradiently diluted compound was diluted in a reaction buffer to obtain a 4× working solution ([…], diluted gradiently by 3-folds) of the compounds to be tested. • c) Prepare a 4× negative control (8% DMSO). • d) Centrifuge the plate at 1000 rpm for 1 min.
1) Prepare 4× serially diluted compounds in 1× buffer.
2) Add 5 μl of the 4× serially diluted compound (prepared in step 1) to a 384 assay plate (784075, Greiner).
3) Prepare 4×RORgt-LBD in 1× buffer.
4) Add 5 μl of the 4×RORgt-LBD (prepared in step 3) to the 384 assay plate (prepared in step 2).
5) Incubate the assay plate for 15 min at room temperature, protected from light.
6) Prepare a 2× mixture of SRC, anti-GST Eu and streptavidin-d2 in 1× […].
7) Add 10 μl of the 2× mixture (prepared in step 6) to the 384 assay plate (prepared in step 4).
8) Centrifuge the 384 assay plates at 1000 g for 1 min.
9) Incubate for 3 h at room temperature, protected from light.
10) Read the plate at wavelengths of 665 nm and 615 nm on an Envision 2104 plate reader.
Relative ratio (RR): Calculate the relative ratio (response value at 665 nm/response value at 615 nm-response value in blank background) of each well.
Inhibition rate %=[1−(fluorescence detection value of the compound−fluorescence detection average of the positive compound)/(fluorescence detection average of the negative control−fluorescence detection average of the positive compound)]×100
Calculate the IC50 and dose-response curve of the compound: The IC50 and dose-response curve of the compound were obtained via Graphpad 8.0 by calculating the inhibition rate of the compound and the log value of the compound concentration.

Molecules are shown by their SMILES. Bounds are passed on as bounds.

As for `CCS(=O)(=O)c1ccc(CC(=O)Nc2ccc(C(=O)C(C)(C)c3cccc(Cl)c3)nc2)cc1` [Compound I-1, N-[6-[2-(3-chlorophenyl)-2-methyl-propionyl]-3-pyridyl]-2-(4-ethylsulfonylphenyl)acetamide], the IC50 lay within 1 to 10 nM.

In turn, `CCS(=O)(=O)c1ccc(CC(=O)Nc2ccc(C(=O)C(C)(C)c3ccc(Cl)cc3)cn2)cc1` [Compound I-2, N-[5-[2-(4-chlorophenyl)-2-methyl-propionyl]-2-pyridyl]-2-(4-ethylsulfonylphenyl)acetamide] yielded a half-maximal inhibitory concentration (IC50) of 10 to 50 nM. The value for `CCS(=O)(=O)c1ccc(CC(=O)Nc2ccc(C(=O)C(C)(C)c3ccc(Cl)cc3)nc2)cc1` [Compound I-3, N-[6-[2-(4-chlorophenyl)-2-methylpropionyl]-3-pyridyl]-2-(4-ethylsulfonylphenyl)acetamide] was 10 to 50 nM; that for `CCS(=O)(=O)c1ccc(CC(=O)Nc2ccc(C(=O)C(C)(C)c3ccc(F)cc3)nc2)cc1` [Compound I-4] was 1 to 10 nM. In turn, `CCS(=O)(=O)c1ccc(CC(=O)Nc2ccc(C(=O)C(C)(C)c3ccc(Br)cc3)nc2)cc1` [Compound I-5] came in with a 50% inhibitory concentration (IC50) of 1 to 10 nM.

As for `CCS(=O)(=O)c1ccc(CC(=O)Nc2ccc(C(=O)C(C)(C)c3ccc(F)c(Cl)c3)nc2)cc1` [Compound I-6, N-(6-(2-(3-chloro-4-fluorophenyl)-2-methylpropionyl)pyridin-3-yl)-2-(4-(ethylsulfonyl)phenyl) acetamide], the IC50 lay in the range of 1 to 10 nM. Turning to `CCS(=O)(=O)c1ccc(CC(=O)Nc2ccc(C(=O)C(C)(C)c3cccnc3)nc2)cc1` [Compound I-7, 2-(4-(ethylsulfonyl)phenyl)-N-(6-(2-methyl-2-(pyridin-3-yl)propanoyl)pyridin-3-yl)acetamide], the IC50 lay in the range of 10 to 50 nM. Regarding `CCS(=O)(=O)c1ccc(CC(=O)Nc2ccc(C(=O)C3(c4ccc(Cl)cc4)CCC3)nc2)cc1` [Compound I-8, N-(6-(1-(4-chlorophenyl)cyclobutane-1-carbonyl)pyridin-3-yl)-2-(4-(ethylsulfonyl)phenyl)acetamide], the IC50 was in the range of 1 to 10 nM. As to `CCS(=O)(=O)c1ccc(CC(=O)Nc2ccc(C(=O)C(C)(C)c3cccc(C#N)c3)nc2)cc1` [Compound I-9, N-[6-[2-(3-cyanophenyl)-2-methylpropionyl]-3-pyridyl]-2-(4-ethylsulfonylphenyl)acetamide], the IC50 lay in the range of 1 to 10 nM.

On to `CCS(=O)(=O)c1ccc(CC(=O)Nc2ccc(C(=O)C(C)(C)c3cccc(Br)c3)nc2)cc1` [Compound I-10, N-[6-[2-(3-bromophenyl)-2-methylpropionyl]-3-pyridyl]-2-(4-ethylsulfonylphenyl)acetamide], for which the IC50 is 1 to 10 nM. In turn, `CCS(=O)(=O)c1ccc(CC(=O)Nc2ccc(C(=O)C3(c4ccc(Cl)cc4)CC3)nc2)cc1` [Compound I-11, N-(6-(1-(4-chlorophenyl)cyclopropane-1-carbonyl)pyridin-3-yl)-2-(4-(ethylsulfonyl)phenyl)acetamide] yielded an IC50 of 1 to 10 nM. Take `CCS(=O)(=O)c1ccc(CC(=O)Nc2ccc(C(=O)C(C)(C)c3ccc(F)cc3F)nc2)cc1` [Compound I-12, N-(6-(2-(2,4-difluorophenyl)-2-methylpropionyl)pyridin-3-yl)-2-(4-(ethylsulfonyl)phenyl)acetamide]: the IC50 is 1 to 10 nM. The figure for `CCS(=O)(=O)c1ccc(CC(=O)Nc2ccc(C(=O)C(C)(C)c3ccc(C(F)(F)F)cc3)nc2)cc1` [Compound I-13] is 1 to 10 nM; for `CCS(=O)(=O)c1ccc(CC(=O)Nc2ccc(C(=O)C(C)c3ccc(Cl)cc3)nc2)cc1` (stereo not drawn) [Compound I-14, N-(6-(2-(4-chlorophenyl)propionyl)pyridin-3-yl)-2-(4-(ethylsulfonyl)phenyl)acetamide] it is 1 to 10 nM. The value for `CCS(=O)(=O)c1ccc(CC(=O)Nc2ccc(C(=O)C(C)(C)c3ccc(F)c(Br)c3)nc2)cc1` [Compound I-15] was 1 to 10 nM; that for `CCS(=O)(=O)c1ccc(CC(=O)Nc2ccc(C(=O)C(C)(C)c3ccncc3)nc2)cc1` [Compound I-19] was 1 to 10 nM. The value for `CCS(=O)(=O)c1ccc(CC(=O)Nc2ccc(C(=O)C(C)(C)c3ccccn3)nc2)cc1` [Compound I-20, 2-(4-(ethylsulfonyl)phenyl)-N-(6-(2-methyl-2-(pyridin-2-yl)propanoyl)pyridin-3-yl)acetamide] was 10 to 50 nM.

In turn, `CCS(=O)(=O)c1ccc(CC(=O)Nc2ccc(C(=O)C(C)(C)c3cnn(C)c3)nc2)cc1` [Compound I-23, 2-(4-(ethylsulfonyl)phenyl)-N-(6-(2-methyl-2-(1-methyl-1H-pyrazol-4-yl)propionyl)pyridin-3-yl)acetamide] yielded an IC50 of 10 to 50 nM. Regarding `CCS(=O)(=O)c1ccc(CC(=O)Nc2ccc(C(=O)C(C)(C)c3ccc(Cl)cc3)nc2)nc1` [Compound I-24, N-(6-(2-(4-chlorophenyl)-2-methylpropionyl)pyridin-3-yl)-2-(5-(ethylsulfonyl)pyridin-2-yl)acetamide], the IC50 fell in the range of 10 to 50 nM. For the molecule `CCS(=O)(=O)c1ccc(CC(=O)Nc2ccc(C(=O)C(C)(C)c3ccc(C(F)(F)F)cn3)nc2)cc1` [Compound I-25, 2-(4-(ethylsulfonyl)phenyl)-N-(6-(2-methyl-2-(5-(trifluoromethyl)pyridin-2-yl)propionyl)pyridin-3-yl)acetamide], the half-maximal inhibitory concentration (IC50) was in the range of 1 to 10 nM. The molecule `CCS(=O)(=O)c1ccc(CC(=O)Nc2ccc(C(=O)C(C)(C)c3ccc(F)c(Cl)c3)nc2)nc1` [Compound I-26, N-(6-(2-(3-chloro-4-fluorophenyl)-2-methylpropionyl)pyridin-3-yl)-2-(5-(ethylsulfonyl)pyridin-2-yl)acetamide] had an IC50 of 1 to 10 nM.

The molecule `CCS(=O)(=O)c1ccc(CC(=O)Nc2ccc(C(=O)C(C)(C)c3cc(Cl)cc(C#N)c3)nc2)cc1` [Compound I-27, N-(6-(2-(3-chloro-5-cyanophenyl)-2-methylpropionyl)pyridin-3-yl)-2-(4-(ethylsulfonyl)phenyl) acetamide] had a half-maximal inhibitory concentration (IC50) of 1 to 10 nM. Molecule `CCS(=O)(=O)c1ccc(CC(=O)Nc2ccc(C(=O)C(C)(C)c3ccc(F)cn3)nc2)cc1` [Compound I-28] displayed an IC50 of 10 to 50 nM. On to `CCS(=O)(=O)c1ccc(CC(=O)Nc2ccc(C(=O)C(C)(C)c3ccnc(C)c3)nc2)cc1` [Compound I-29], for which the IC50 was in the range of 1 to 10 nM. In the case of `CCS(=O)(=O)c1ccc(CC(=O)Nc2ccc(C(=O)C(C)(C)c3ccc(C)cn3)nc2)cc1` [Compound I-30], the IC50 fell in the range of 1 to 10 nM. `CCS(=O)(=O)c1ccc(CC(=O)Nc2ccc(C(=O)C(C)(C)c3ccc(Cl)cn3)nc2)cc1` [Compound I-31] returned an IC50 of 1 to 10 nM. As to `CCS(=O)(=O)c1ccc(CC(=O)Nc2ccc(C(=O)C(C)(C)c3cncc(Cl)c3)nc2)cc1` [Compound I-32, N-(6-(2-(5-chloropyridin-3-yl)-2-methylpropionyl)pyridin-3-yl)-2-(4-(ethylsulfonyl)phenyl)acetamide], the half-inhibitory concentration (IC50) was 10 to 50 nM. In the case of `CCS(=O)(=O)c1ccc(CC(=O)Nc2ccc(C(=O)C(C)(C)c3cnn(CC(F)(F)F)c3)nc2)cc1` [Compound I-33, 2-(4-(ethylsulfonyl)phenyl)-N-(6-(2-methyl-2-(1-(2,2,2-trifluoroethyl)-1H-pyrazol-4-yl)propionyl)pyridin-3-yl)acetamide], the IC50 lay in the range of 10 to 50 nM. In turn, `CCS(=O)(=O)c1ccc(CC(=O)Nc2ccc(C(=O)C(C)(C)c3cnn(CC(F)F)c3)nc2)cc1` [Compound I-34] returned an IC50 of 100 to 1000 nM.

For the molecule `CCS(=O)(=O)c1ccc(CC(=O)Nc2ccc(C(=O)C3(c4ccc(Cl)cc4)CC(F)(F)C3)nc2)cc1` [Compound I-35], the IC50 fell in the range of 1 to 10 nM.

`CCS(=O)(=O)c1ccc(CC(=O)Nc2ccc(C(=O)C(C)(C)c3nccs3)nc2)cc1` [Compound I-36]: the half-inhibitory concentration (IC50) lay within 10 to 50 nM. Consider `CCS(=O)(=O)c1ccc(CC(=O)Nc2ccc(C(=O)C(C)(C)n3cc(C)cn3)nc2)cc1` [Compound I-37], for which the IC50 fell in the range of 100 to 1000 nM. In the case of `CCS(=O)(=O)c1ccc(CC(=O)Nc2ccc(C(=O)C(C)(C)n3ccc(C)n3)nc2)cc1` [Compound I-38], the IC50 is above 1000 nM.

As usually defined, the IC50 is the concentration that inhibits the measured activity by half. A lower IC50 goes with inhibition by little substance.
